According to patent US10221178B2, “Purine inhibitors of human phosphatidylinositol 3-kinase delta” (MERCK SHARP & DOHME CORP., priority 2015, dated 2019):

Columns and labels:
PI3Kdelta = PI3Kdelta (Homo sapiens (Human), UniProt O00329); assay: HTRF PI3K biochemical assay, delta isoform; settings: 0.3 nM enzyme, 100 uM ATP, 5 uM PIP2, form screened: Neutral
Source text: (§1) HTRF PI3K Biochemical Assay to Measure Intrinsic Potency of Compound Inhibitors
(§2) The PI3-Kinase biochemical assays were developed to measure the intrinsic potency and compound dependent inhibition of the alpha, beta, delta, and gamma PI3K isoform enzymes.
(§3) This assay was developed and further optimized from a kit produced by Upstate (Millipore catalog #33-047) and has been configured for HTS (high throughput screening) and SAR screening. Briefly, this procedure exploits the exquisite specificity and high affinity binding of enzyme reaction substrate phosphatidyl(3,4,5)triphosphate (PIP3) to the GRP1 pleckstrin homology (PH) domain to generate the signal. In the absence of PIP3, an HTRF (Homogeneous Time-Resolved Fluorescence energy transfer) complex is formed consisting of europium (Eu)-labeled anti-GST, GSTtagged GRP1-PH domain, biotin-PIP3 and streptavidin conjugated APC. The native PIP3 produced by PI3-Kinase activity disrupts in a competitive manner the biotin-PIP3 from the PH domain, resulting in the loss of energy transfer (HTRF complex) and a decrease in the signal. The format of this assay is the same for all 4 isoforms of PI3K; the differences lie in the concentration of enzyme used to achieve robust assay window. The alpha, beta, and delta assays are run at 0.5, 1, and 0.3 nM enzymes and the gamma assay is run at 5 nM enzyme. The ATP concentration is 100 uM in the alpha, beta, and delta assays and 50 uM ATP in the gamma assay. All reactions are run at 5 uM PIP2.
(§4) Compounds are serially diluted (3-fold in 100% DMSO) across a 384-well polypropylene source plated from column 3 to column 12 and column 13 to column 22, to yield 10 concentration dose response for each test compound. Columns 1, 2, 23 and 24 contain either only DMSO or pharmacological known control inhibitor. Once titrations are made, 2.5 nL of the compounds on 384 well plates are reformatted and transferred by acoustic dispense in quadruplicates to a 1536 assay plate (Greiner) to assay across all four PI3K isoform enzymes.
(§5) The PI3-Kinase biochemical assay was optimized using the HTRF kit provided by Upstate (Millipore). The assay kit contains six reagents: 1) 4× Reaction Buffer; 2) native PIP2 (substrate); 3) Stop (EDTA); 4) Detection Mix A (Streptavidin-APC); 5) Detection Mix B (Eu-labeled Anti-GST plus GST-tagged PH-domain); 6) Detection Mix C. In addition, the following items were obtained or purchased; PI3Kinase (alpha 14-602, beta 14-603, gamma 14-558 and delta 14-604 from Upstate; Millipore), dithiothreitol (Sigma, D-5545), Adenosine-5′ triphosphate (InVitrogen, Cat#AS001A), native PIP3 (PI(3,4,5)P3, diC8, H^+, CELLSIGNALS, INC. Cat #907) DMSO (Sigma, 472301).
(§6) PI3Kinase Reaction Buffer is prepared by dilution the stock 1:4 with de-ionized water. DTT, PIP2 and Biotin-PIP3 were added to 1536 assay plate at a final concentration of 5 mM, […] on the day of use. Enzyme addition and compound pre-incubation are initiated by the addition of 1.25 ul of PI3K (at twice its final concentration) in the 1× reaction buffer to all wells using a BioRaptor. Plates are incubated at RT for 15 minutes. Reactions are initiated by addition of 1.25 ul of 2× substrate solution (PIP2 and ATP in 1× reaction buffer) using BioRaptor. Plates are incubated in humidified chamber at RT for one hour. Reactions are quenched by addition of 0.625 uL of stop solution to all wells using the BioRaptor. The quenched reactions are then processed to detect product formation by adding 0.625 uL of Detection Solution to all wells using the BioRaptor (Detection mix C, Detection Mix A, and Detection Mix B combined together in an 18:1:1 ratio prepared 2 hours prior to use). Following a one hour incubation in the dark, the HTRF signal is measured on the Envision plate reader set for 330 nm excitation and dual emission detection at 620 nM (Eu) and 665 nM (APC).

PI3Kalpha = PI3Kalpha (Homo sapiens (Human), UniProt P42336); assay: HTRF PI3K biochemical assay, alpha isoform (selectivity versus PI3Kalpha); settings: relative ratio (PI3K-alpha IC50 value/PI3K-delta IC50 value); form screened: Neutral
Source text: as §1, §2, §3, §4, §5
as §6, with “[…]. […]” for “(APC).”

Sequence of PI3Kdelta (O00329 whole entry, canonical isoform): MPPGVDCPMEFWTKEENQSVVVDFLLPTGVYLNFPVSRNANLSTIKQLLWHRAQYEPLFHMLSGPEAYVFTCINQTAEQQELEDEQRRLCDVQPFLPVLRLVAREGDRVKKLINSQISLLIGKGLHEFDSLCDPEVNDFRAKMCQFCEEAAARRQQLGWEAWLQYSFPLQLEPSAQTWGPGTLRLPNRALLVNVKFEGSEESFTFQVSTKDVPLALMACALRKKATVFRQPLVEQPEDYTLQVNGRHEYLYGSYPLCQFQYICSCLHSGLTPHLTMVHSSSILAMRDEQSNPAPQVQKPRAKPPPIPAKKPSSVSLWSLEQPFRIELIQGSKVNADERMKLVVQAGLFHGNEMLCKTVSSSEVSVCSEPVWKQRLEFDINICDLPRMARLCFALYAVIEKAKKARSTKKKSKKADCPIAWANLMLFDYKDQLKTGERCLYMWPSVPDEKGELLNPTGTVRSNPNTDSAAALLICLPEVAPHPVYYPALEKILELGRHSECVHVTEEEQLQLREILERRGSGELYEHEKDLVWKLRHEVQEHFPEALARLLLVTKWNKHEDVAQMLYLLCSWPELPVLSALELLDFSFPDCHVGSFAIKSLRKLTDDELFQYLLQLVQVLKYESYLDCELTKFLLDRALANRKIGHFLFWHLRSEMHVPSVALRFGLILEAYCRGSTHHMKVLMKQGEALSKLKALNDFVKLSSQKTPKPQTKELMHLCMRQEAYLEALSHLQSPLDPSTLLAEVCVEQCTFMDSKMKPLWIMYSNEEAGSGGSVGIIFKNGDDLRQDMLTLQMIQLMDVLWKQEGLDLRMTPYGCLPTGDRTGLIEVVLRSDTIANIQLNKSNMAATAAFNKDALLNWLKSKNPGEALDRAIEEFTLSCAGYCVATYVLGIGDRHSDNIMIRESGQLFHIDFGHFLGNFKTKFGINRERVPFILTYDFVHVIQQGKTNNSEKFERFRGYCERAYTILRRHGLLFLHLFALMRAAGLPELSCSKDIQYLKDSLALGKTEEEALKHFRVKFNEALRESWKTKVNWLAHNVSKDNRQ
Sequence of PI3Kdelta (P27986 whole entry partner, canonical isoform): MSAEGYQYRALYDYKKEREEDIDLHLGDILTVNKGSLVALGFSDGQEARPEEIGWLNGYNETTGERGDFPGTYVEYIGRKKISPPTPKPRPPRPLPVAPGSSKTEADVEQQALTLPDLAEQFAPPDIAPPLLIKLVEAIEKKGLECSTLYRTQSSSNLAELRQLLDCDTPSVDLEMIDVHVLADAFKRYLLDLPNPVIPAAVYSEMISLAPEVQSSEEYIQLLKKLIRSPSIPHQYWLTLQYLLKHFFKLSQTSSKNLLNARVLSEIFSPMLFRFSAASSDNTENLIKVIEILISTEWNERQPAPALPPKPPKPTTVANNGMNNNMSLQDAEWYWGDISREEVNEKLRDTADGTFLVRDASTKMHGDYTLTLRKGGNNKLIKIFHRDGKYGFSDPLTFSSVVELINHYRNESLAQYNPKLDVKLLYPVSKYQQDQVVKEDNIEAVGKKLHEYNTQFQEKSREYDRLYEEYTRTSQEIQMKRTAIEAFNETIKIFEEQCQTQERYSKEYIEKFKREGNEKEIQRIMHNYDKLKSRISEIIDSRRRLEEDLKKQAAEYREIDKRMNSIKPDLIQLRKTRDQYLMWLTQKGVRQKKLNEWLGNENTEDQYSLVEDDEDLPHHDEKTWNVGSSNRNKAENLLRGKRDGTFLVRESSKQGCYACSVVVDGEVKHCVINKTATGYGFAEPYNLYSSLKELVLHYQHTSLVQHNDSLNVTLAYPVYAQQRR
Sequence of PI3Kalpha (P42336 whole entry, canonical isoform): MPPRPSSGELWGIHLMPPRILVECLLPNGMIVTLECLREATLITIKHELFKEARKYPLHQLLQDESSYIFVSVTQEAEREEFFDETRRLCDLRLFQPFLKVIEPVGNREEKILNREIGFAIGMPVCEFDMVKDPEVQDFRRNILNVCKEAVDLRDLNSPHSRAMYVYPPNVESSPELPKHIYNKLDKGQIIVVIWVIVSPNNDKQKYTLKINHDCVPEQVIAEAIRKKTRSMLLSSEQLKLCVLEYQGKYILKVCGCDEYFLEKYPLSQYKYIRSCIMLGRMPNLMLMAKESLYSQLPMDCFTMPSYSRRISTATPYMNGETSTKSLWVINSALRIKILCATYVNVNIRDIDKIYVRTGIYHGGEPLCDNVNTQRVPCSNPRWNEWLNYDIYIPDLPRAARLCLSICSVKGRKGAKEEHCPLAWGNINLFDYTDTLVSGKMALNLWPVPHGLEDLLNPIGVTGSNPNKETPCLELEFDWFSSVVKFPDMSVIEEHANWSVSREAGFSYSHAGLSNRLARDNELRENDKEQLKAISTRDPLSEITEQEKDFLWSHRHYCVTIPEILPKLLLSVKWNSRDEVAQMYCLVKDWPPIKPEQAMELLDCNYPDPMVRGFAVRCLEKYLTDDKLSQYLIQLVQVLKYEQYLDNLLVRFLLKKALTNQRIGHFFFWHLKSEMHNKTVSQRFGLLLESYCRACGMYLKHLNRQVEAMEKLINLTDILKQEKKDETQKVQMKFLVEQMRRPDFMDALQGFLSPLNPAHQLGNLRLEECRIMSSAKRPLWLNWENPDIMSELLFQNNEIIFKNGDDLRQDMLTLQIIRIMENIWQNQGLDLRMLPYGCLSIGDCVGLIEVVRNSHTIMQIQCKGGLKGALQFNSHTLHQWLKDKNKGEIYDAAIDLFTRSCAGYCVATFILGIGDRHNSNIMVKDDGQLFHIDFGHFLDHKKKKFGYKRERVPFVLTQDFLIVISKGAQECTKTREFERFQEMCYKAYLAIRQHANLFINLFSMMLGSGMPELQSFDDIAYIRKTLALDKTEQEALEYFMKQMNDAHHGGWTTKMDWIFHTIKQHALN
Sequence of PI3Kalpha (P27986 whole entry partner, canonical isoform): as the sequence (P27986 whole entry partner, canonical isoform) above

Row | IC50 (PI3Kdelta) [nM] | Selectivity versus PI3Kalpha (PI3Kalpha) | SMILES
1 | 320 | >10 | CCC(Oc1ncnc2c1nc(-c1cnn(CC)c1C)n2C)C(=O)N1CCOCC1 (racemic) [Compound 1-1, (R and S)-8-(1-ethyl-5-methyl-1H-pyrazol-4-yl)-9-methyl-6-[1-(morpholin-4-ylcarbonyl)propoxy]-9H-purine]
2 | 240 | >10 | CCC(Oc1ncnc2c1nc(-c1cnn(CC)c1C)n2C)C(=O)N1CCCCC1 (racemic) [Compound 1-2, (R and S)-8-(1-ethyl-5-methyl-1H-pyrazol-4-yl)-9-methyl-6-[1-(piperidin-1-ylcarbonyl)propoxy]-9H-purine]
3 | 9 | >10 | CCC(Nc1ncnc2c1nc(-c1cnn(CC)c1C)n2C)C(=O)N1CCC(F)(F)CC1 (racemic) [Compound 1-5, (R and S)-N-{1-[(4,4-difluoropiperidin-1-yl)carbonyl]propyl}-8-(1-ethyl-5-methyl-1H-pyrazol-4-yl)-9-methyl-9H-purin-6-amine]
4 | 23 | >10 | CC[C@H](Nc1ncnc2c1nc(-c1cnc(C)nc1)n2CC)C(=O)N1CCCC(OC)CC1 (mixture of isomers) [Compound 2-9, 9-ethyl-N-{(1S)-1-[(4-methoxyazepan-1-yl)carbonyl]propyl}-8-((R and S)-2-methylpyrimidin-5-yl)-9H-purin-6-amine]
5 | 7 | >10 | CC[C@H](Nc1ncnc2c1nc(-c1cnc(C)nc1)n2CC)C(=O)N1CC2CCS(=O)(=O)C2C1 (mixture of isomers) [Compound 2-14, N-{(1S)-1-[((3a(R and S), 6a(R and S)-1,1-dioxidohexahydro-5H-thieno[2,3-c]pyrrol-5-yl)carbonyl]propyl}-9-ethyl-8-(2-methylpyrimidin-5-yl)-9H-purin-6-amine]
6 | 31 | >10 | CC[C@H](Nc1ncnc2c1nc(-c1cnc(C)nc1)n2CC)C(=O)N1CCC(C)C1 (mixture of isomers) [Compound 2-18, 9-ethyl-8-(2-methylpyrimidin-5-yl)-N-{(1S)-1-[((S and R)-3-methylpyrrolidin-1-yl)carbonyl]propyl}-9H-purin-6-amine]
7 | 9.3 | >10 | CC[C@H](Nc1ncnc2c1nc(-c1cnc(C)nc1)n2CC)C(=O)N1CCCC(C)C1 (mixture of isomers) [Compound 2-23, 9-ethyl-N-{(1S)-1-[((R and S)-3-methylpiperidin-1-yl)carbonyl]propyl}-8-(2-methylpyrimidin-5-yl)-9H-purin-6-amine]
8 | 27 | >10 | CC[C@H](Nc1ncnc2c1nc(-c1cnc(C)nc1)n2CC)C(=O)N1CCSC1C (mixture of isomers) [Compound 2-24, 9-ethyl-8-(2-methylpyrimidin-5-yl)-N-{(1S)-1-[((S and R)-2-methyl-1,3-thiazolidin-3-yl)carbonyl]propyl}-9H-purin-6-amine]
9 | 64 | >10 | CC[C@H](Nc1ncnc2c1nc(-c1cnc(C)nc1)n2CC)C(=O)N1CCOCC1CO (mixture of isomers) [Compound 2-37, {4-[(2S)-2-{[9-ethyl-8-(2-methylpyrimidin-5-yl)-9H-purin-6-yl]amino}butanoyl]-(R and S)-morpholin-3-yl}methanol]
10 | 24 | >10 | CCn1ncc(-c2nc3c(NC(C)C(=O)N4CCOCC4)ncnc3n2C)c1C (single isomer, unassigned) [Compound 1-7, (R or S)-8-(1-ethyl-5-methyl-1H-pyrazol-4-yl)-9-methyl-N-(1-methyl-2-morpholin-4-yl-2-oxoethyl)-9H-purin-6-amine]
11 | 6.5 | >10 | CCC(Nc1ncnc2c1nc(-c1cnc(C)nc1)n2CC)C(=O)N1CCOCC1 (single isomer, unassigned) [Compound 1-8, (R or S)-9-ethyl-8-(2-methylpyrimidin-5-yl)-N-[1-(morpholin-4-ylcarbonyl)propyl]-9H-purin-6-amine]
